Results: US9730447B2, “Fungicidal amides” (E I DU PONT DE NEMOURS AND COMPANY, priority 2013, dated 2017)
Marks after values point to notes of the source that are not given here.

Legend:
Assay type in all cases: in vivo
[1] = test system: Botrytis cinerea; test: Test A: preventive spray on tomato seedlings, Botrytis cinerea (gray mold), visual disease rating; conditions: 100 = 100% disease control, 0 = no control relative to controls, unmarked values; for pest or weed control at 40 µg/mL, 160 g/ha: 96 h
Excerpt: (§1) General protocol for preparing test suspensions for Tests A-E: the test compounds were first dissolved in acetone in an amount equal to 3% of the final volume and then suspended at the desired concentration (in ppm) in acetone and purified water (50/50 mix by volume) containing 250 ppm of the surfactant Trem® 014 (polyhydric alcohol esters). The resulting test suspensions were then used in Tests A-E. Compounds were sprayed with either a 40 ppm or 10 ppm (*) test suspension to the point of run-off on the test plants which is the equivalent of a rate of 160 g ai/ha or 40 g ai/ha, respectively.
The test suspension was sprayed to the point of run-off on tomato seedlings. The following day the seedlings were inoculated with a spore suspension of Botrytis cinerea (the causal agent of gray mold on many crops) and incubated in a saturated atmosphere at 20° C. for 48 h, and moved to a growth chamber at 27° C. for 2 days, after which time visual disease ratings were made.
(§2) Results for Tests A-E are given in Table A. In the Table, a rating of 100 indicates 100% disease control and a rating of 0 indicates no disease control (relative to the controls). A dash (-) indicates no test results.

[2] = test system: Stagonospora nodorum (also known as Septoria nodorum); test: Test B: preventive spray on wheat seedlings, Stagonospora nodorum (wheat glume blotch), visual disease rating
Excerpt: as §1
(§3) The test suspension was sprayed to the point of run-off on wheat seedlings. The following day the seedlings were inoculated with a spore suspension of Stagonospora nodorum (also known as Septoria nodorum; the causal agent of wheat glume blotch) and incubated in a saturated atmosphere at 20° C. for 48 h, and then moved to a growth chamber at 20° C. for 6 days, after which time visual disease ratings were made.
as §2

[3] = test system: Erysiphe graminis f. sp. tritici; test: Test E: preventive spray on wheat seedlings, Erysiphe graminis f. sp. tritici (wheat powdery mildew), visual disease rating
Excerpt: as §1
The test suspension was sprayed to the point of run-off on wheat seedlings. The following day the seedlings were inoculated with a spore dust of Erysiphe graminis f. sp. tritici, (the causal agent of wheat powdery mildew) and incubated in a growth chamber at 20° C. for 8 days, after which time visual disease ratings were made.
as §2

[4] = test system: Puccinia recondite f. sp. tritici; test: Test D: preventive spray on wheat seedlings, Puccinia recondite f. sp. tritici (wheat leaf rust), visual disease rating
Excerpt: as §1
as §3, with “Puccinia recondite f. sp. tritici; (the” for “Stagonospora nodorum (also known as Septoria nodorum; the”, “leaf rust)” for “glume blotch)”, “24” for “48”
as §2

[5] = test system: Septoria tritici; test: Test C: preventive spray on wheat seedlings, Septoria tritici (wheat leaf blotch), visual disease rating
Excerpt: as §1
The test suspension was sprayed to the point of run-off on wheat seedlings. The following day the seedlings were inoculated with a spore suspension of Septoria tritici (the causal agent of wheat leaf blotch) and incubated in a saturated atmosphere at 24° C. for 48 h, and then moved to a growth chamber at 20° C. for 21 days, after which time visual disease ratings were made.
as §2

[6] = 100 = 100% disease control, 0 = no control, unmarked values
[7] = values marked with asterisk (*), meaning not given

| Structure (SMILES) | Test B disease control rating [2, 6] [%] | Test E disease control rating [3, 6] [%] | Test D disease control rating [4, 6] [%] | Test C disease control rating [5, 6] [%] | also measured |
| --- | --- | --- | --- | --- | --- |
| O=C(Nc1ccccc1-c1cnc(-n2ccc(C(F)(F)F)n2)cn1)c1ncccc1C(F)(F)F [Compound 3, 3-(trifluoromethyl)-N-[2-[5-[3-(trifluoromethyl)-1H-pyrazol-1-yl]-2-pyrazinyl]phenyl]-2-pyridinecarboxamide] |  |  |  |  | pest or weed control at 40 µg/mL, 160 g/ha [1]: 0% |
| O=C(Nc1ccccc1-c1cnc(-n2ccc(C(F)(F)F)n2)c(Cl)c1)c1ncccc1C(F)(F)F [Compound 34, N-[2-[5-chloro-6-[3-(trifluoromethyl)-1H-pyrazol-1-yl]-3-pyridinyl]phenyl]-3-(trifluoromethyl)-2-pyridinecarboxamide] |  |  |  |  | pest or weed control at 40 µg/mL, 160 g/ha [1]: 96% |
| O=C(Nc1ccccc1-c1ccc(-n2ccc(C(F)(F)F)n2)nn1)c1ncccc1C(F)(F)F [Compound 59, 3-(trifluoromethyl)-N-[2-[6-[3-(trifluoromethyl)-1H-pyrazol-1-yl]-3-pyridazinyl]phenyl]-2-pyridinecarboxamide] |  |  |  |  | pest or weed control at 40 µg/mL, 160 g/ha [1]: 0% |
| O=C(Nc1ccccc1-c1cnc(-n2cc(Cl)cn2)c(Cl)c1)c1ncccc1C(F)(F)F [Compound 61, N-[2-[5-chloro-6-[4-chloro-1H-pyrazol-1-yl]-3-pyridinyl]phenyl]-3-(trifluoromethyl)-2-pyridinecarboxamide] |  |  |  |  | pest or weed control at 40 µg/mL, 160 g/ha [1]: 41% |
| Cn1cc(C(=O)Nc2ccccc2-c2cnc(-n3ccc(C(F)(F)F)n3)c(F)c2)c(C(F)F)n1 [Compound 68, 3-(difluoromethyl)-N-[2-[5-fluoro-6-[3-(trifluoromethyl)-1H-pyrazol-1-yl]-3-pyridinyl]phenyl]-1-methyl-1H-pyrazole-4-carboxamide] |  |  |  |  | pest or weed control at 40 µg/mL, 160 g/ha [1]: 94% |
| CC(Cc1ccc(-n2ccc(C(F)(F)F)n2)nc1)NC(=O)c1cn(C)nc1C(F)F (centres unmarked) [Compound 83, 3-(difluoromethyl)-1-methyl-N-[1-methyl-2-[6-[3-(trifluoromethyl)-1H-pyrazol-1-yl]-3-pyridinyl]ethyl]-1H-pyrazole-4-carboxamide] |  |  |  |  | pest or weed control at 40 µg/mL, 160 g/ha [1]: 99% |
| CC(Cc1ccc(-n2ccc(C(F)(F)F)n2)nc1)NC(=O)c1ncccc1C(F)(F)F (centres unmarked) [Compound 84, N-[1-methyl-2-[6-[3-(trifluoromethyl)-1H-pyrazol-1-yl]-3-pyridinyl]ethyl]-3-(trifluoromethyl)-2-pyridinecarboxamide] |  |  |  |  | pest or weed control at 40 µg/mL, 160 g/ha [1]: 66% |
| Cn1cc(C(=O)Nc2ccccc2-c2ccc(-n3ccc(-c4cc(F)cc(F)c4)n3)nc2)c(C(F)F)n1 [compound 89] | 0 | 79 | 100 |  | Test A disease control rating [1]: 75% |
| Cn1cc(C(=O)Nc2ccccc2-c2ccc(-n3ccc(-c4ccccc4F)n3)nc2)c(C(F)F)n1 [compound 90] | 46 | 72 | 100 |  | Test A disease control rating [1]: 93% |
| COc1cc(OC)cc(-c2ccn(-c3ccc(-c4ccccc4NC(=O)c4cn(C)nc4C(F)F)cn3)n2)c1 [compound 91] | 33 | 56 | 100 |  | Test A disease control rating [1]: 87% |
| CC1=C(C(=O)Nc2ccccc2-c2cnc(-n3ccc(C(F)(F)F)n3)c(F)c2)S(=O)(=O)CCO1 [compound 114] | 0 | 64 | 100 | 84 |  |
| O=C(Nc1ccccc1-c1cnc(-n2ccc(C(F)(F)F)n2)c(F)c1)c1nccnc1C(F)(F)F [compound 115] | 100 | 100 | 100 | 98 |  |
| O=C(Nc1ccccc1-c1cnc(-n2ccc(C(F)(F)F)n2)c(F)c1)c1ncsc1C(F)(F)F [compound 126] | 99 | 99 | 100 | 99 |  |
| Cn1cc(C(=O)Nc2ccccc2-c2cnc(-n3ccc(C(F)(F)F)n3)c(C#N)c2)c(C(F)(F)F)n1 [compound 127] | 0 |  |  |  | Test C disease control rating [5, 7]: 62* %; Test E disease control rating [3, 7]: 40* %; Test D disease control rating [4, 7]: 100* % |
| COc1cccc(C2CC(c3ccc(-c4ccccc4NC(=O)c4ncccc4C(F)(F)F)cn3)=NN2C)c1 (centres unmarked) [compound 130] | 11 | 69 | 97 | 89 |  |
| O=C(Nc1ccccc1-c1cnc(-n2ccc(C(F)(F)F)n2)c(Cl)c1)c1ccccc1C(F)F [compound 132] | 0 | 98 | 99 | 99 |  |
| O=C(Nc1ccccc1-c1cnc(-n2ccc(C(F)(F)F)n2)c(F)c1)c1nccnc1Cl [compound 149] | 95 | 98 | 99 | 97 |  |
| Cn1cc(C(=O)Nc2ccccc2-c2cnc(-n3ccc(C(F)(F)F)n3)c(F)c2)c(C(F)(F)F)n1 [compound 150] | 92 | 99 | 100 | 98 |  |
| Cc1nc(C(F)(F)F)c(C(=O)Nc2ccccc2-c2cnc(-n3ccc(C(F)(F)F)n3)c(F)c2)s1 [compound 151] | 0 | 98 | 100 | 98 |  |
| Cc1ccsc1C(=O)Nc1ccccc1-c1cnc(-n2ccc(C(F)(F)F)n2)c(F)c1 [compound 152] | 99 | 99 | 100 | 99 |  |
| Cc1ccsc1C(=O)Nc1ccccc1-c1cnc(-n2ccc(C(F)(F)F)n2)c(C#N)c1 [compound 154] |  |  |  |  | Test C disease control rating [5, 7]: 94* %; Test B disease control rating [2, 7]: 59* %; Test E disease control rating [3, 7]: 0* %; Test D disease control rating [4, 7]: 100* % |
| O=C(Nc1ccccc1-c1cnc(-n2ccc(C(F)F)n2)c(F)c1)c1ncccc1C(F)(F)F [compound 161] | 100 | 99 | 100 | 95 |  |
| Cn1cc(C(=O)Nc2ccccc2-c2cnc(-n3ccc(C(F)F)n3)c(F)c2)c(C(F)F)n1 [compound 162] | 68 | 99 | 100 | 98 |  |
| Cc1sccc1C(=O)Nc1ccccc1-c1cnc(-n2ccc(C(F)(F)F)n2)c(F)c1 [compound 163] | 79 | 96 | 100 | 97 |  |
| O=C(Nc1ccccc1-c1cnc(-n2ccc(C(F)(F)F)n2)c(Cl)c1)c1scnc1C(F)(F)F [compound 165] | 0 |  |  |  | Test C disease control rating [5, 7]: 99* %; Test E disease control rating [3, 7]: 87* %; Test D disease control rating [4, 7]: 98* % |
| O=C(Nc1ccccc1-c1cnc(-n2ccc(C(F)(F)F)n2)c(Cl)c1)c1sccc1C(F)(F)F [compound 167] |  |  |  |  | Test C disease control rating [5, 7]: 100* %; Test B disease control rating [2, 7]: 98* %; Test E disease control rating [3, 7]: 94* %; Test D disease control rating [4, 7]: 100* % |
| O=C(Nc1ccccc1-c1cnc(-n2ccc(C(F)(F)F)n2)c(Cl)c1)c1sccc1Cl [compound 168] |  |  |  |  | Test C disease control rating [5, 7]: 95* %; Test B disease control rating [2, 7]: 0* %; Test E disease control rating [3, 7]: 64* %; Test D disease control rating [4, 7]: 99* % |
| Cc1scnc1C(=O)Nc1ccccc1-c1cnc(-n2ccc(C(F)(F)F)n2)c(Cl)c1 [compound 170] |  |  |  |  | Test C disease control rating [5, 7]: 74* %; Test B disease control rating [2, 7]: 50* %; Test E disease control rating [3, 7]: 0* %; Test D disease control rating [4, 7]: 0* % |
| O=C(Nc1ccccc1-c1cnc(-n2ccc(C(F)(F)F)n2)c(Cl)c1)c1sccc1F [compound 176] |  |  |  |  | Test C disease control rating [5, 7]: 93* %; Test B disease control rating [2, 7]: 0* %; Test E disease control rating [3, 7]: 0* %; Test D disease control rating [4, 7]: 0* % |
